Converted amounts (≈) assume the structure as drawn. Read-outs that look alike come from different tables or passages of the source.
Experiments:
[1] = tested on: Murine leukemia L1210 cells; test: In vitro growth inhibition of L1210 cells (MTT, 72 hr); assay type: cell-based; details: Mus musculus, read-out: L1210 IC50
Method: (§1) The reagents for tissue culture were purchased from GIBCO (Grand Island, N.Y.). 5-Dimethylthiazol-2-yl)-2,5-diphenyl tetrazolium bromide (MTT) was purchased from Sigma Chemical Company (St. Louis, Mo.). All agents were prepared as 2 mg/ml stock solutions in DMSO. MTT was prepared as a 1 mg/ml stock solution in Dulbecco's phosphate buffered saline (PBS). All stocks were stored frozen in the dark at -20° C.
(§2) Clone A human colon cancer cells were isolated from the heterogeneous DLD-1 colon tumor line and maintained as previously described (Dexter, D. L.; Barbosa, J. A.; Calabresi, P. Cancer Research 1979, 39, 1020; Dexter, D. L.; Spremulli, E. M.; Fligiel, A.; Barbosa, J. A.; Vogel, R.; Van Vorhees, A.; Calabresi, P. Am. J. Med. 1981, 71, 949.). Murine leukemia L1210 cells were maintained in RPMI-L medium as described (Chen, S.-F.; Ruben, R. L.; Dexter, D. L. Cancer Research 1986, 46, 5014.). All cell lines were incubated at 37° C. in a humidified atmosphere of 5% CO2 -95% air.
(§3) Exponentially growing L1210 cells (1×10^3), or Clone A cells (8×10^2) in 0.1 ml medium were seeded in a 96-well microtiter plate on day 0. On day one, 0.1 ml aliquots of medium containing graded concentrations of test compounds were added to the cell plates. After incubation at 37° C. in a humidified incubator for 72 hr, the plates containing L1210 cells were centrifuged briefly and 100 μl of the growth medium was removed. Cell cultures were incubated with 50 μl of MTT for 4 h at 37° C. (12). The resulting purple formazan precipitate was solubilized with 200 μl of 0.04 N HCl in isopropyl alcohol. Absorbance was read in a Titertek Multiskan MCC scanning well spectrophotometer (Flow Laboratories) at a test wavelength of 570 nm and a reference wavelength of 630 nm. The absorbances were stored on a floppy disk on an IBM-XT and uploaded onto a VAX computer. IC50 values were determined by a computer program that fit the data to the following equation:
(§4) Y=((Am -Ao)/(1+(X/IC50)^n))+Ao
(§5) where Am =absorbance of the control cells; Ao =absorbance of the cells in the presence of highest compound concentration; Y=observed absorbance; X=compound concentration; IC50 =dose of compound that inhibits the number of population doublings of cells to one half that of the number of population doublings of the control cells; and n equals the slope of the straight portion of the curve.
(§6) The values reported in the table are from at least one experiment performed in eight replicates. If more than one experiment was performed, the number reported is the average of all the trials

[2] = tested on: Clone A human colon cancer cells; test: In vitro growth inhibition of Clone A cells (MTT, 72 hr); assay type: cell-based; details: read-out: Clone A IC50
Method: as §1, §2, §3, §4, §5, §6

Compound | IC50 ([1]; L1210 cells, 72 hr, MTT) [µg/mL] | IC50 ([2]; Clone A cells, 72 hr, MTT) [µg/mL] | IC50 ([1]; L1210, 72 h) [µg/mL] | IC50 ([2]; 72 h) [µg/mL]
CS(=O)(=O)O.Cc1cnc2c(c1)cc1c3c(cccc32)C(=O)N(CCCCNCCCN2C(=O)c3cccc4c3c(cc3cc(C)cnc34)C2=O)C1=O [Example 10, 4-[3-(7-Methyl-5-azaphenanthrene-1,10-dicarboximido)propylamino]-1-(7-methyl-5-azaphenanthrene-1, 10-dicarboximido)butane Hydromethanesulfonate] | 0.588 | 0.346 | – | –
CS(=O)(=O)O.O=C1c2cccc3c2c(cc2cc([N+](=O)[O-])cnc23)C(=O)N1CCCCNCCCN1C(=O)c2cccc3c2c(cc2cc([N+](=O)[O-])cnc23)C1=O [Example 11, 4-[3-(7-Nitro-5-azaphenanthrene-1,10dicarboximido)propylamino]-1-(7-nitro-5-azaphenanthrene-1, 10-dicarboximido)butane Hydromethanesulfonate] | – | – | 0.171 | 0.543
O=C1c2cc([N+](=O)[O-])cc3c2c(cc2cnccc23)C(=O)N1CCCCNCCCN1C(=O)c2cc([N+](=O)[O-])cc3c2c(cc2cnccc23)C1=O [Example 16, 4-[3-(3-Nitro-7-azaphenanthrene-1,10-dicarboximido)propylamino]-1-(3-nitro-7-azaphenanthrene-1, 10-dicarboximido)butane 2.6-Hydromethanesulfonate] | – | – | < 0.01 | 0.002 (≈ 2.87 nM)
CS(=O)(=O)O.Cc1ccc2cc3c4c(cccc4c2c1)C(=O)N(CCCCNCCCN1C(=O)c2cccc4c2c(cc2ccc(C)cc24)C1=O)C3=O [Example 41, 4-[3-(6-Methylphenanthrene-1,10-dicarboximido)propylamino]-1-(6-methylphenanthrene-1, 10-dicarboximido)butane Hydromethanesulfonate] | – | – | 0.317 | 0.804
CS(=O)(=O)O.O=C1c2cccc3c2c(c(C(F)(F)F)c2ccccc23)C(=O)N1CCCCNCCCN1C(=O)c2cccc3c2c(c(C(F)(F)F)c2ccccc23)C1=O [Example 45, 4-(3-[9-(Trifluoromethyl)phenanthrene-1,10-dicarboximido]propylamino)-1-[9-(trifluoromethyl)phenanthrene-1,10-dicarboximido]butane Hydromethanesulfonate] | – | – | 0.3 | 1.05
O=C1c2cccc3c2c(c(-c2ccccc2)c2ccccc23)C(=O)N1CCCCNCCCN1C(=O)c2cccc3c2c(c(-c2ccccc2)c2ccccc23)C1=O [Example 48, 4-[3-(9-Phenylphenanthrene-1,10-dicarboximido)propylamino]-1-(9-phenylphenanthrene-1, 10-docarboximido)butane Hydromethanesulfonate] | – | – | 0.773 | 1.46
CS(=O)(=O)O.N#Cc1ccc2cc3c4c(cccc4c2c1)C(=O)N(CCCCNCCCN1C(=O)c2cccc4c2c(cc2ccc(C#N)cc24)C1=O)C3=O [Example 49, 4-[3-(6-Cyanophenanthrene-1,10-dicarboximido)propylamino]-1-(6-cyanophenanthrene-1, 10-dicarboximido)butane Hydromethanesulfonate] | – | – | 0.026 | 0.007
CS(=O)(=O)O.O=C1c2cc([N+](=O)[O-])cc3c2c(cc2ccccc23)C(=O)N1CCCCNCCCN1C(=O)c2cc([N+](=O)[O-])cc3c2c(cc2ccccc23)C1=O [Example 50, 4-[3-(3-Nitrophenanthrene-1,10-dicarboximido)propylamino]-1-(3-nitrophenanthrene-1, 10-dicarboximido)butane Hydromethanesulfonate] | – | – | 0.126 | 0.032
CS(=O)(=O)O.O=C1c2cccc3c2c(cc2cccc([N+](=O)[O-])c23)C(=O)N1CCCCNCCCN1C(=O)c2cccc3c2c(cc2cccc([N+](=O)[O-])c23)C1=O [Example 51, 4-[3-(5-Nitrophenanthrene-1,10-dicarboximido)propylamino]-1-(5-nitrophenanthrene-1, 10-dicarboximido)butane Hydromethanesulfonate] | – | – | 0.205 | 0.747

— patent US5585382A, “Polycyclic and heterocyclic chromophores for bis-imide tumoricidals” (The DuPont Merck Pharmaceutical Company, priority 1995, dated 1996)
